Results taken from patent US10246453B2, “Benzenesulfonamide compounds and their use as therapeutic agents” (Xenon Pharmaceuticals Inc., priority 2016, dated 2019).

Molecular target: NaV1.5 (Homo sapiens (Human), UniProt Q14524)
Experiment: in vitro
Conditions: pH 7.4

NaV1.5, sequence (Q14524 other isoform, or with tags, fused parts or gaps): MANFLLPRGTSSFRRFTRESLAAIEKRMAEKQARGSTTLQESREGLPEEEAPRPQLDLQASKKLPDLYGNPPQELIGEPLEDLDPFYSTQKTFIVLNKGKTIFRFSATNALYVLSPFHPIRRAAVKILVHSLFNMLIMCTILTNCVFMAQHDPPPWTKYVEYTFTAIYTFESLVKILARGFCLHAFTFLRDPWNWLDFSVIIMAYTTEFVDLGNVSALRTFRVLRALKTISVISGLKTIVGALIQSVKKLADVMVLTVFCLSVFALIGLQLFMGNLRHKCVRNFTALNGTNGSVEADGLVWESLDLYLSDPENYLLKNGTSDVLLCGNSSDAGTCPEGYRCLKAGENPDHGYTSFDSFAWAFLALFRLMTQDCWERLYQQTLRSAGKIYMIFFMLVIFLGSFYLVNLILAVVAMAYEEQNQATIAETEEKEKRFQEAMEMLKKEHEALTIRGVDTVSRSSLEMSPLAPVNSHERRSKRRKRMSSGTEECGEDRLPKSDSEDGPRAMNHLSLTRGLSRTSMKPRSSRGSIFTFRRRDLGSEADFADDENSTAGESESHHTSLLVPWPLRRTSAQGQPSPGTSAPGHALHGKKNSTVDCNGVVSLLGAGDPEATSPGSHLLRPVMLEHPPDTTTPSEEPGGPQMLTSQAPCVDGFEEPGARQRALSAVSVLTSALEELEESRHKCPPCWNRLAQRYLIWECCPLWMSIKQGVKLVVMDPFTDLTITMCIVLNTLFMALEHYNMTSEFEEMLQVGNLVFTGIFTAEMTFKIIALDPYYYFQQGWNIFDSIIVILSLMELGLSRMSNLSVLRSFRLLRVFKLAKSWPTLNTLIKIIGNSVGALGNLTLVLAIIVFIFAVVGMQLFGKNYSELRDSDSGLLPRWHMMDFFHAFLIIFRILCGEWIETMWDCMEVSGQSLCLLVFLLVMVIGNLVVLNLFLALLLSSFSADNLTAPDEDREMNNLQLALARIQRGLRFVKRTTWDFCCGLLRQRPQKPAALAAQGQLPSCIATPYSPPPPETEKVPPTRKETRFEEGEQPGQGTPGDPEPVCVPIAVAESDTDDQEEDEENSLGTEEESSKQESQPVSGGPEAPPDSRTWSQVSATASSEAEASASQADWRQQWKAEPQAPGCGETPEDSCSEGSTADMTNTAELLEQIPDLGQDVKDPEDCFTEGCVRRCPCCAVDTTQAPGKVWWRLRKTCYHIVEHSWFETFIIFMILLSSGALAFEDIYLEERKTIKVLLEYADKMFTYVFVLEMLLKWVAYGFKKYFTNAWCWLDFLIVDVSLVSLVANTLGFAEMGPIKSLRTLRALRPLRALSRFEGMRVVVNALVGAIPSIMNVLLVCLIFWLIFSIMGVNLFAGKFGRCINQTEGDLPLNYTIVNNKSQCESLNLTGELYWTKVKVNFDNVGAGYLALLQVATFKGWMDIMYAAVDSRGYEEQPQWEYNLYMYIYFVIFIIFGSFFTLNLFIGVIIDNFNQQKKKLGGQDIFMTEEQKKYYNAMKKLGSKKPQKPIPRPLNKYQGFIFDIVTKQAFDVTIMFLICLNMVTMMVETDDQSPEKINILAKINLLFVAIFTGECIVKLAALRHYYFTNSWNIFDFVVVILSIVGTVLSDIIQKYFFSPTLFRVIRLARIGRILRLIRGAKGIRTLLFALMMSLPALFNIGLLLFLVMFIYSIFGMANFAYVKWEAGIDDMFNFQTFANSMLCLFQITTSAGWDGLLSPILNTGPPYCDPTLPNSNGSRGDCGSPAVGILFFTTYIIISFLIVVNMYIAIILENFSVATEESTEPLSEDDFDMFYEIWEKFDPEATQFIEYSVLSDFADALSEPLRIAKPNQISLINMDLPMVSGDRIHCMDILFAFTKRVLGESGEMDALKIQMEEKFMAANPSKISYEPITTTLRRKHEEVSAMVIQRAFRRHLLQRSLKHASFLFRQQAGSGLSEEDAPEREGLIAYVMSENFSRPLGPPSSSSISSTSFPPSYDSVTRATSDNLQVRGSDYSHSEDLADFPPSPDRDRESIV

C[C@@H]1[C@H](N(C)c2cc(F)c(S(=O)(=O)Nc3cscn3)cc2Cl)CCN1Cc1ccccc1 (racemic) [Example 309, rac-4-(((2R,3R)-1-benzyl-2-methylpyrrolidin-3-yl)(methyl)amino)-5-chloro-2-fluoro-N-(thiazol-4-yl)benzenesulfonamide]
IC50 at 1 h: 7.35 µM
